Results: patent publication US9101613B2, “Methods for treating neurological disease” (Neurim Pharmaceuticals (1991) Ltd., priority 2006, dated 2015)
pIC50, pKi: −log10 of the molar value. Like-named read-outs stand apart in the source and are kept apart here.

How the values were obtained:
MT-1 receptor = biological target: T1, MT-1 receptor (Homo sapiens, UniProt P48039); assay: 125I-melatonin binding in membranes of CHP-K1 cells, MT-1; details: for inhibition at 10 µM: read-out: MT-1 receptor binding % inhibition by 10 μM
T1 construct: expressed in transfected cells; host or cells: CHP-K1 (Chinese hamster ovary) cells (so in the source)
T1 sequence (P48039 whole entry): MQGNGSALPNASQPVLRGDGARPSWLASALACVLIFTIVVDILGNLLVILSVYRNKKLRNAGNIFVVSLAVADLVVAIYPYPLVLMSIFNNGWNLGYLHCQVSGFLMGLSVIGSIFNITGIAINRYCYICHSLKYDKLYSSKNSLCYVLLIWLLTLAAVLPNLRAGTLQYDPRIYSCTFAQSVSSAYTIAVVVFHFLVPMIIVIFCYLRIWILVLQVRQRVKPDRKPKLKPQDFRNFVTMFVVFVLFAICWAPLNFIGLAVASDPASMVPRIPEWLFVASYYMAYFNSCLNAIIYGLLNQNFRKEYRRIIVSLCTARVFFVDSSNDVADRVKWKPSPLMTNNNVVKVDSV
Experimental: (§1) Aliquots of suspended membranes of human recombinant CHP-K1 (Chinese hamster ovary) cells stably expressing human melatonin-1 or melatonin-2 (MT-1 or MT-2) receptors or of hamster brain (MT-3) were incubated at 25° C. with 0.05 nM ^125I-melatonin in buffer (25 mM HEPES, pH 7.4, 5 mM MgCl2, 1 mM CaCl2, 0.5% BSA) or with 0.1 nM for MT-3 alone or in the presence of 1 nM, 10 nM, 0.1 μM, 1 μM and 10 μM of test substances N-[2-(5-methoxy-indol-3-yl)-ethyl]-commenamide, N-[2-(5-methoxy-indol-3-yl)-ethyl]-comanilamide, N-[2-(5-methoxy-indol-3-yl)-ethyl]-coumalylamide, N-[2-(5-methoxy-indol-3-yl)-ethyl]-2-methoxy-commenamide, N-[2-(5-methoxy-indol-3-yl)-ethyl]-chelidonamide, O-[2-(5-methoxy-indol-3-yl)-ethyl]-comenic ester, N-[2-(5-methoxy-indol-3-yl)-ethyl]-2-Pyrone-6-carboxamide and N-[2-(2-bromo-5-methoxy-indol-3-yl)-ethyl]-coumalylamide for 3 hours for MT-1, 4 hours for MT-2 and 30 min for MT-3. The binding reaction was terminated and the membranes were washed with 4 ml of ice-cold HEPES buffer by vacuum filtration. Membranes were then collected, and the filters containing the bound ^125I-melatonin were assayed for the amount of radioactivity in a […]. Non-specific binding was evaluated using a reaction with 1 μM 6-chloromelatonin (MT-1 and MT-2) or 30 μM melatonin (MT-3).

MT-3 receptor = biological target: T2, MT-3 receptor (Mesocricetus auratus, UniProt A0ABM2YAB8); assay: 125I-melatonin binding in hamster brain membranes, MT-3; details: for inhibition at 10 µM: read-out: MT-3 receptor binding % inhibition by 10 μM
T2 construct: from tissue; host or cells: hamster brain membranes
T2 sequence (A0ABM2YAB8 1-231): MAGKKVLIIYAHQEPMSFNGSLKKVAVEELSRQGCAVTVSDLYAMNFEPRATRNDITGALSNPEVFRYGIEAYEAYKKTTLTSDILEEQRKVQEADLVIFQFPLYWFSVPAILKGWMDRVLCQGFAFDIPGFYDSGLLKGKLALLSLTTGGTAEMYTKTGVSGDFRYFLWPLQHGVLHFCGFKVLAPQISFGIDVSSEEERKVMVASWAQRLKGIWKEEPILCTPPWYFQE
Experimental: as §1

5-HT1A receptor = biological target: T3, 5-HT1A receptor (Homo sapiens, UniProt P08908); assay: Serotonin receptor binding, [3H] 8-OH-DPAT, CHO-K1 membranes
T3 construct: expressed in transfected cells; host or cells: CHO-K1
T3 sequence (P08908 1-422): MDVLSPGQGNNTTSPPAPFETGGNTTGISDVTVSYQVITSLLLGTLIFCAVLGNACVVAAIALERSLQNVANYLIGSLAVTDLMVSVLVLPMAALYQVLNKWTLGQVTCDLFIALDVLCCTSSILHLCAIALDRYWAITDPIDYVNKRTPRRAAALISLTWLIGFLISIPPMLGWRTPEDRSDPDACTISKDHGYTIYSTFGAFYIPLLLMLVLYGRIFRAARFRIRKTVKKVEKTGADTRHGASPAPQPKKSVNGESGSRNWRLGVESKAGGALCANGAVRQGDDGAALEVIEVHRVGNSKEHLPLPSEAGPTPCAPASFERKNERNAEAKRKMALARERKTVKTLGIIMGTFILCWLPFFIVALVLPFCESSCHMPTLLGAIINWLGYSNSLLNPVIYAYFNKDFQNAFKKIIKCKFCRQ
Experimental: (§2) Aliquots of suspended membranes of human recombinant CHO-K1 cells stably expressing human 5-HT1A, 5-HT2A, 5-HT1B, 5-HT2B, 5-HT2C, 5-HT4, 5-HT6 or 5-HT7 receptors were pre-incubated at 25° C. with 1.5 nM [^3H] 8-OH-DPAT (5-HT1A), 1.5 nM [^3H] Ketanserin (5-HT2A), 0.01 nM [^125I] Cyanopindolol (5-HT1B), 1 nM [^3H] Mesulergine (5-HT2c), 0.7 nM [^3H] GR-113808 (5-HT4) or at 37° C. 1.2 nM [^3H] LSD (5-HT2B, 5-HT6 and 5-HT7) in buffer (50 mM Tris-HCl, pH 7.7) alone or in the presence of 1 nM, 10 nM, 0.1 μM, 1 μM, and 10 μM of N-[2-(5-methoxy-indol-3-yl)-ethyl]-commenamide, N-[2-(5-methoxy-indol-3-yl)-ethyl]-coumalylamide, N-[2-(5-methoxy-indol-3-yl)-ethyl]-comanilamide, N-[2-(5-methoxy-indol-3-yl)-ethyl]-2-methoxy-commenamide or N-[2-(5-methoxy-indol-3-yl)-ethyl]-chelidonamide for 60 minutes. The binding reaction was terminated and washed with 4 ml ice-cold 50 mM Tris-HCl buffer by vacuum filtration. Membranes were then collected, and the filters containing the bound ligands were assayed for the amount of radioactivity in a b-counter. Non-specific binding was evaluated using a reaction with 10 μM metergoline (5-HT1A), 1 μM mianserin (5-HT2A and 5-HT2c) or 10 μM serotonin (5-HT1B, 5-HT2B, 5-HT4, 5-HT6 and 5-HT7).

5-HT1B receptor = biological target: T4, 5-HT1B receptor (Homo sapiens, UniProt P28222); assay: Serotonin receptor binding, [125I] Cyanopindolol, CHO-K1 membranes
T4 construct: expressed in transfected cells; host or cells: CHO-K1
T4 sequence (P28222 whole entry): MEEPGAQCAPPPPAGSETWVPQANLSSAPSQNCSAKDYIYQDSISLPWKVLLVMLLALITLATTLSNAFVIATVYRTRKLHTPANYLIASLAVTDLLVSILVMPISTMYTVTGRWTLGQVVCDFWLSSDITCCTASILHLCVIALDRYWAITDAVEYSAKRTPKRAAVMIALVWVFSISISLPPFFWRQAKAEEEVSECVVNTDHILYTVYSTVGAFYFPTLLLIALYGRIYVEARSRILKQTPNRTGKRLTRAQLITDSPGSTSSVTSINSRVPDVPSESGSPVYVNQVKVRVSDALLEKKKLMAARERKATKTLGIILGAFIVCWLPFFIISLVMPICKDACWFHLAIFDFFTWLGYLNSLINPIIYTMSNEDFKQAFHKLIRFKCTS
Experimental: as §2

3T3-L1 adipocytes = assay: 2-[3H]-deoxy-d-glucose uptake in FFA-treated 3T3-L1 adipocyte model; type: cell-based; details: Insulin 20 nM + FFA 300 μM (3 h) + substance 10 nM
Experimental: Adipocytes were glucose-starved for 1 h in Hepes-salt buffer containing 2% FFA-free BSA. FFA (free fatty acids) were then added to the cells at the indicated concentrations (300 μM) for the indicated times (3 h). 10 min before the end of the FFA treatment, the cells were stimulated with insulin (20 nM)/melatonin (10 nM)/test compounds (10 nM) at 37° C. 2-[^3H]-deoxy-d-glucose at 1 μCi/mL and 0.1 mM unlabeled 2-deoxyglucose in KRP-HEPES buffer was added and cells were incubated for 10 min at room temperature. Non-specific glucose uptake was measured by parallel incubations in the presence of 10 μM cytochalasin B, which blocks transporter-mediated glucose uptake, and was subtracted from total uptake in each assay. Cells were then washed three times with ice-cold phosphate buffered saline (PBS) and solubilized in 1M NaOH for 20 minutes. The sample was then counted using a scintillation counter. 2-[^3H]-deoxy-d-glucose uptake was assayed in triplicates for each condition in at least 3 independent experiments. 2-[^3H]-deoxy-d-glucose uptake (counts per minute-cpm) are presented as mean+SE of triplicates in a representative experiment or results of three independent experiments. ANOVA test was used with significance of P<0.05 (Table 7).

[1] = 0.05 nM 125I-melatonin, 25° C., 3 hours, read-out: MT-1 receptor binding IC50
[2] = 0.05 nM 125I-melatonin, 25° C., 3 hours, read-out: MT-1 receptor binding KI
[3] = 0.1 nM 125I-melatonin, 30 min, read-out: MT-3 receptor binding IC50
[4] = 0.1 nM 125I-melatonin, 30 min, read-out: MT-3 receptor binding KI

| SMILES | pIC50 (MT-1 receptor; [1]) | pKi (MT-1 receptor; [2]) | inhibition at 10 µM (MT-1 receptor; 10 μM, 0.05 nM 125I-melatonin) | pIC50 (MT-3 receptor; [3]) | pKi (MT-3 receptor; [4]) | inhibition at 10 µM (MT-3 receptor; 10 μM, 0.1 nM 125I-melatonin) | affinity to 5-HT1A (5-HT1A receptor) | pIC50 (5-HT1A receptor; read-out: 5-HT1A IC50) | pKi (5-HT1A receptor; read-out: 5-HT1A KI) | affinity to 5-HT1B (5-HT1B receptor) | 2-[3H]-deoxy-d-glucose uptake (cpm) (3T3-L1 adipocytes) | pIC50 (5-HT1B receptor; read-out: 5-HT1B IC50) | pKi (5-HT1B receptor; read-out: 5-HT1B KI) | affinity to MT-1 (MT-1 receptor) | affinity to MT-3 (MT-3 receptor) | other results |
| --- | --- | --- | --- | --- | --- | --- | --- | --- | --- | --- | --- | --- | --- | --- | --- | --- |
| COc1ccc2[nH]cc(CCNC(=O)c3cc(=O)cc(C(=O)O)o3)c2c1 [N-[2-5-methoxy-indol-3-yl)-ethyl]-chelidonamide] | 5.61 | 5.89 | 80% | 5.66 | 5.66 | 86% | moderate affinity | 5.99 | 6.24 | moderate affinity | 1407 cpm |  |  |  |  |  |
| COc1ccc2[nH]cc(CCNC(=O)c3cc(=O)c(OC)co3)c2c1 [N-[2-(5-methoxy-indol-3-yl)-ethyl]-2-methoxy-commenamide] | 5.67 | 5.95 | 76% | 6.64 | 6.66 | 99% |  | 5.71 | 5.96 |  | 1522 cpm | 5.26 | 5.29 |  |  |  |
| COc1ccc2[nH]cc(CCNC(=O)c3cc(=O)cco3)c2c1 [N-[2-(5-methoxy-indol-3-yl)-ethyl]-comanilamide] | 7.38 | 7.66 | 98% | 6.51 | 6.52 | 100% |  | 5.71 | 5.95 | moderate affinity | 1492 cpm | 5.67 | 5.69 | high affinity | high affinity |  |
| COc1ccc2[nH]cc(CCNC(=O)c3cc(=O)c(O)co3)c2c1 [N-[2-(5-methoxy-indol-3-yl)-ethyl]-commenamide] |  |  |  |  |  |  | moderate affinity |  |  |  | 1530 cpm |  |  | high affinity | high affinity | pIC50 (MT-1 receptor): 7.62; pKi (MT-1 receptor): 7.89; inhibition at 10 µM (MT-1 receptor): 99%; pIC50 (MT-3 receptor): 6.10; pKi (MT-3 receptor): 6.11; inhibition at 10 µM (MT-3 receptor): 98%; pIC50 (5-HT1A receptor): 6.17; pKi (5-HT1A receptor): 6.41; pIC50 (5-HT1B receptor): 5.41; pKi (5-HT1B receptor): 5.43 |
| COc1ccc2[nH]cc(CCNC(=O)c3ccc(=O)oc3)c2c1 [N-[2-(5-methoxy-indol-3-yl)-ethyl]-coumalylamide] | 6.12 | 6.41 | 89% | 6.01 | 6.02 | 95% |  | 5.71 | 6.19 | moderate affinity | 1494 cpm | 5.79 | 5.81 |  |  |  |
